The source of these data is patent US5567590A, “Methods of diagnosing steroid-resistant inflammation due to type I or type II nuclear glucocorticoid receptor binding abnormalities” (National Jewish Center for Immunology and Respiratory, priority 1994, dated 1996).

The nature of experiment [1]: 7-10 day course of high dose oral Prednisone in poorly controlled asthmatics. The format is in vivo, human. Conditions: Post-Pn. The protocol: 10 poorly controlled asthmatics received a 7-10 day course of high dose oral Prednisone (20-30 mg po bid). Following prednisone treatment, PBMC's were obtained as generally described in Experiment 1 and the whole cell GR number (sites/cell) and binding affinity (Kd, nmol/l) were determined using techniques generally described in Experiment 1. In addition, spirometry and serum ECP levels were measured pre- and post-Prednisone treatment. […]

Experiment [2] can be described thus: FEV1 response of SS and SR asthma patients to a 1 week course of oral prednisone. The format is in vivo, human. The source says:
Patients with a diagnosis of asthma, based on American Thoracic Society criteria, were selected for evaluation. […]. Patients were excluded if they had evidence for other types of lung disease, pregnancy, suspected noncompliance with medical care, or concurrent therapy with medications that alter glucocorticoid metabolism, such as anti-convulsants or erythromycin. A complete set of pulmonary function tests with lung volume, methacholine bronchial challenge, and diffusion capacity/total lung capacity ratio were obtained if the diagnosis of asthma required confirmation.
Patients were classified as SS or SR based on their prebronchodilator morning FEV1 and their response to a course of oral prednisone. […] All SR asthma patients had glucocorticoid pharmacokinetic studies to exclude those patients with an abnormality in prednisone absorption or metabolism.

A further experiment relates to PBMC from normal donors. Conditions: MPN 10^-6 to 10^-9 M, 72 hours. The procedure:
PBMC were then analyzed for GR-binding parameters or capacity to proliferate in the absence and presence of methylprednisone (MPN). […] After 72 hours of incubation, proliferation was measured by [^3 H]TdR incorporation (1 μCi/well, 6.7 Ci/mmol; ICN, Irvine, Calif.) during the last 6 hours of culture. Proliferation response was measured as the percent of control incorporation of [^3 ]TdR using the formula: [formula] GR-Binding Studies
PBMC from four normal donors were preincubated in the absence and presence of IL-2+IL-4, or IL-2 alone, for 48 hours and then subsequently stimulated with PMA (0.01 μM) and I (0.05 μM) in the presence and absence of MPN ranging in concentration from 10^-6 to 10^-9 M for another 72 hours. […] Each point represents the mean±SEM.

Where two headings read alike, the source gives them in different places.

Take `C[C@]12C=CC(=O)C=C1CC[C@@H]1[C@@H]2C(=O)C[C@@]2(C)[C@H]1CC[C@]2(O)C(=O)CO` [Prednisone]: the “GR Number” value in experiment [1] (PBMC, 10 poorly controlled asthmatics, Pre-Pn 8029 ± 1875, p 0.024) was found to be 3575 ± 1094 sites/cell. In experiment [1] (serum, Pre-Pn 16.1 ± 1.9, p 0.045), this compound returned an ECP of 10.8 ± 1.2 µg/L. Further, the “FEV1 /FVC Ratio” value in experiment [1] (Pre-Pn 0.60 ± 0.02, p 0.014) is given as 0.70 ± 0.01. For the same compound, the FEV1 in experiment [1] (Pre-Pn 63.8 ± 3.2%, p 0.008) was found to be 82.6 ± 4.4 % predicted. The “FEV1 after steroid burst” value in experiment [2] (SR asthma patients (n 17), FEV1 before BD 58 % predicted) is 57; in experiment [2] (SS asthma patients (n 12), FEV1 before BD 47 % predicted) it was 82.
For methylprednisone [MPN], the “effect of MPN on PMA/I-induced proliferation” value in the experiment on PBMC from normal donors (PBMC preincubated 48 hours in culture medium alone) was “significant dose-dependent inhibition of proliferation”; in the experiment on PBMC from normal donors (PBMC preincubated 48 hours with IL-2+IL-4, compared with medium alone), “significantly decreased inhibitory effect”.
